{"source": "patent US12466790B1", "about": "“Bis urea-based organoselenium compound and method for treating cancer” (IMAM MOHAMMAD IBN SAUD ISLAMIC UNIVERSITY, priority 2024, dated 2025)", "key": {"[1]": {"system": "colorectal carcinoma (HCT116)", "assay": "SRB growth inhibition assay, HCT116", "assay_type": "cell-based", "conditions": "Homo sapiens, HCT-116, HCT116 cells, 100 μg/mL, 48 h incubation, read-out: growth inhibition percentage", "description": "(§1) The antitumor activities of the bis-(organoselanyl urea)aryl agent against all tested cell lines were evaluated by sulphorhodamine-B (SRB) assay. Briefly, cells were seeded at a density of 3×10^3 cells/well in 96-well microtiter plates. They were left to attach for 24 h before incubation with the aforementioned compound. Next, cells were treated with 100 μg/mL for bis-(organoselanyl urea)aryl agent. For each concentration, three wells were used, and incubation was continued for 48 h. DMSO was used as a control vehicle (1% v/v). At the end of incubation, cells were fixed with 20% trichloroacetic acid and stained with 0.4% SRB dye. The optical density (O.D.) of each well was measured spectrophotometrically at 570 nm using an ELISA microplate reader (TECAN Sunrise™, Germany). The mean survival fraction at each drug concentration was calculated as follows: O.D. of the treated cells/O.D. of the control cells. The IC50 (concentration that produces 50% of cell growth inhibition) value of bis-(organoselanyl urea)aryl agent was calculated using sigmoidal dose-response curve-fitting models."}, "[2]": {"system": "breast cancer cell line (MCF7)", "assay": "SRB growth inhibition assay, MCF7", "assay_type": "cell-based", "conditions": "Homo sapiens, MCF7 cells, 100 μg/mL, 48 h incubation, read-out: growth inhibition percentage", "description": "as §1"}, "melanoma cancer (A375)": {"system": "melanoma cancer (A375)", "assay": "SRB growth inhibition assay, A375", "assay_type": "cell-based", "conditions": "Homo sapiens, A-375, A375 cells, 100 μg/mL, 48 h incubation, read-out: growth inhibition percentage", "description": "as §1"}, "[3]": {"system": "hepatocellular carcinoma (HuH7)", "assay": "SRB growth inhibition assay, HuH7", "assay_type": "cell-based", "conditions": "Homo sapiens, Huh-7, HuH7 cells, 100 μg/mL, 48 h incubation, read-out: growth inhibition percentage", "description": "as §1"}, "[4]": {"system": "non-small cell lung cancer (A549)", "assay": "SRB growth inhibition assay, A549", "assay_type": "cell-based", "conditions": "Homo sapiens, A549 cells, 100 μg/mL, 48 h incubation, read-out: growth inhibition percentage", "description": "as §1"}, "[5]": {"system": "pharynx squamous carcinoma (FaDu)", "assay": "SRB growth inhibition assay, FaDu", "assay_type": "cell-based", "conditions": "Homo sapiens, FaDu cells, 100 μg/mL, 48 h incubation, read-out: growth inhibition percentage", "description": "as §1"}, "[6]": {"system": "human squamous cell carcinoma of the oral tongue (HN9)", "assay": "SRB growth inhibition assay, HN9", "assay_type": "cell-based", "conditions": "HN9 cells, 100 μg/mL, 48 h incubation, read-out: growth inhibition percentage", "description": "as §1"}, "[7]": {"system": "hepatocellular carcinoma (HEPG2)", "assay": "SRB growth inhibition assay, HEPG2", "assay_type": "cell-based", "conditions": "Homo sapiens, HEPG2 cells, 100 μg/mL, 48 h incubation, read-out: growth inhibition percentage", "description": "as §1"}, "[8]": {"system": "human skin fibroblast normal cell (HSF)", "conditions": "48 h, 100 μg/mL", "description": "as §1"}, "[9]": {"system": "normal oral epithelial cell line (OEC)", "conditions": "48 h, 100 μg/mL", "description": "as §1"}}, "data": [{"compound": "COc1cccc2c1C(=O)c1c(O)c3c(c(O)c1C2=O)C[C@@](O)(C(=O)CO)C[C@@H]3O[C@H]1C[C@H](N)[C@H](O)[C@H](C)O1", "note": "[doxorubicin, reference compound]", "values": [{"measurement": "inhibition at 100 µg/mL", "setting": "[1]", "result": 64.3, "unit": "%"}, {"measurement": "inhibition at 100 µg/mL", "setting": "[2]", "result": 58.6, "unit": "%"}, {"measurement": "inhibition at 100 µg/mL", "setting": "melanoma cancer (A375)", "result": 78.2, "unit": "%"}, {"measurement": "inhibition at 100 µg/mL", "setting": "[3]", "result": 68, "unit": "%"}, {"measurement": "inhibition at 100 µg/mL", "setting": "[4]", "result": 39.1, "unit": "%"}, {"measurement": "inhibition at 100 µg/mL", "setting": "[5]", "result": 79.3, "unit": "%"}, {"measurement": "inhibition at 100 µg/mL", "setting": "[6]", "result": 51.7, "unit": "%"}, {"measurement": "inhibition at 100 µg/mL", "setting": "[7]", "result": 55.6, "unit": "%"}]}, {"compound": "C[Se]c1ccc(NC(=O)Nc2ccc(Cc3ccc(NC(=O)Nc4ccc([Se]C)cc4)cc3)cc2)cc1", "note": "[HB190, 1,1′-(methylenebis(4,1-phenylene))bis(3-(4-(methylselanyl)phenyl)urea)]", "values": [{"measurement": "inhibition at 100 µg/mL", "setting": "[1]", "result": 85.3, "unit": "%"}, {"measurement": "inhibition at 100 µg/mL", "setting": "[2]", "result": 67.7, "unit": "%"}, {"measurement": "inhibition at 100 µg/mL", "setting": "melanoma cancer (A375)", "result": 66.8, "unit": "%"}, {"measurement": "inhibition at 100 µg/mL", "setting": "[3]", "result": 88.6, "unit": "%"}, {"measurement": "inhibition at 100 µg/mL", "setting": "[4]", "result": 74.4, "unit": "%"}, {"measurement": "growth inhibition percentage (safety, normal cells)", "setting": "[8]", "result": 9.76, "unit": "%"}, {"measurement": "growth inhibition percentage (safety, normal cells)", "setting": "[9]", "result": 7.32, "unit": "%"}, {"measurement": "inhibition at 100 µg/mL", "setting": "[5]", "result": 77.3, "unit": "%"}, {"measurement": "inhibition at 100 µg/mL", "setting": "[6]", "result": 74, "unit": "%"}, {"measurement": "inhibition at 100 µg/mL", "setting": "[7]", "result": 76.2, "unit": "%"}]}]}
